From BindingDB's records for doi:10.1124/mol.105.012005 (Wyeth Research, 2005)

How the values were obtained:
[1] = molecular target: T1, Excitatory amino acid transporter 3 (Homo sapiens, UniProt P43005)
T1 sequence (P43005 whole entry): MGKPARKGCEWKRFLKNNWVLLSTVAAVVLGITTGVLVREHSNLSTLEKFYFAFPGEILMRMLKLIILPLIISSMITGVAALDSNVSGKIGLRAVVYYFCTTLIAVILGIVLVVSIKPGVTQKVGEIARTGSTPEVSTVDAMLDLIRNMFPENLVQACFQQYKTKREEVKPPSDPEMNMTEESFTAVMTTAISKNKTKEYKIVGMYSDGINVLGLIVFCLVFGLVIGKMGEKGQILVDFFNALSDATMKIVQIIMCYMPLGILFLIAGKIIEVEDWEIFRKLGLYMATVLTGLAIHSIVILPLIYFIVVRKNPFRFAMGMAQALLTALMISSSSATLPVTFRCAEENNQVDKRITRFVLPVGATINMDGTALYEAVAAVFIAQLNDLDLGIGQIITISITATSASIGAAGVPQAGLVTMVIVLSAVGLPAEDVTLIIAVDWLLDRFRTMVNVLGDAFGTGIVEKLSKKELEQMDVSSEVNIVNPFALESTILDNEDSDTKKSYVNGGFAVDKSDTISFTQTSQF

[2] = molecular target: Excitatory amino acid transporter 1 (Homo sapiens, UniProt P43003)
Sequence of Excitatory amino acid transporter 1 (P43003 whole entry): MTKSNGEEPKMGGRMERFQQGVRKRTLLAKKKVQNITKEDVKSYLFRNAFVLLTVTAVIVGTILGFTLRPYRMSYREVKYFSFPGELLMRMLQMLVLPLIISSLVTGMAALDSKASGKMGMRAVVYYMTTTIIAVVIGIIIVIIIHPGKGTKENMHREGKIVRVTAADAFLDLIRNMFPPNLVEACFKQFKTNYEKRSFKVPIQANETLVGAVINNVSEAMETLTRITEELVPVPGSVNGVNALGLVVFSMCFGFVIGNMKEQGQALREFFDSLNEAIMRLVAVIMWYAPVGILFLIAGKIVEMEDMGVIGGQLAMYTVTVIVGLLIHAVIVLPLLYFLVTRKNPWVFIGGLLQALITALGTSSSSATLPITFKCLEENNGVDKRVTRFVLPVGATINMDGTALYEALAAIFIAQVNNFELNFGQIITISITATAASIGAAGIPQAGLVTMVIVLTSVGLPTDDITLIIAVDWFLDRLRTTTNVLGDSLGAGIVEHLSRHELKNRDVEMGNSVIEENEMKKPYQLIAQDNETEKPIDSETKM

Compound	IC50 [1]	IC50 [2]
Cc1cc(C(=O)NC[C@H](N)C(=O)O)ccc1-c1ccc(Cl)cc1 [3-[3-Methyl-4-(4-chlorophenyl)benzoylamino]alanine]	1.45 µM	
N[C@@H](CC(=O)Nc1ccc2c(c1)Cc1cc(C(F)(F)F)ccc1-2)C(=O)O [WAY-212922]	1.84 µM	3.43 µM
Cc1ccccc1-c1ccc(NC(=O)C[C@H](N)C(=O)O)cc1 [WAY-213394]	6.56 µM	1.97 µM
